Results taken from ChEMBL document CHEMBL1201862, “PubChem BioAssay data set” (2004).
Activity calls are given as the source filed them.

How the values were obtained:
[1] = test system: HEK293; experiment: cells; type: functional, cell-based; settings: Homo sapiens
[2] = biological target: T1, Nuclear receptor subfamily 0 group B member 1 (Homo sapiens, UniProt P51843); experiment: Luminescence-based cell-based high throughput dose response assay for inhibitors of the orphan nuclear receptor subfamily 0, group B, member 1 (DAX1; NR0B1). [Related pubchem assays (depositor defined):AID504766, AID504790]; type: functional
T1 sequence (P51843 whole entry): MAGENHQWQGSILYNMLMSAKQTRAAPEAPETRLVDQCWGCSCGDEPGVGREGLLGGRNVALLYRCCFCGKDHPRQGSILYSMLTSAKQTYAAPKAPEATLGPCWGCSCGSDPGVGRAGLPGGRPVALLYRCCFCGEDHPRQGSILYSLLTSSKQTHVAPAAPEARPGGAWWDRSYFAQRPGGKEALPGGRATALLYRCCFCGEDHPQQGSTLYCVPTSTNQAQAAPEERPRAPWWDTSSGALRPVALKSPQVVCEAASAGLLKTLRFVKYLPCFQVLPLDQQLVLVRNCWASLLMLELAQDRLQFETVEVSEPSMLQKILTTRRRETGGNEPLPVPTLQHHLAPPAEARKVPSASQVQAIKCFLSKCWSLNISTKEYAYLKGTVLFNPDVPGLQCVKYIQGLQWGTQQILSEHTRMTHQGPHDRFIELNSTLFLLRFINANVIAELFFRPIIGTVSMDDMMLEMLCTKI

[3] = biological target: T2, Mannose-6-phosphate isomerase (Homo sapiens, UniProt P34949); experiment: MPI inhibition at elevated mannose 6-phosphate – biochemical, fluorescence intensity, high mannose 6-phosphate, primary screen (AID 1220)
T2 sequence (P34949 whole entry): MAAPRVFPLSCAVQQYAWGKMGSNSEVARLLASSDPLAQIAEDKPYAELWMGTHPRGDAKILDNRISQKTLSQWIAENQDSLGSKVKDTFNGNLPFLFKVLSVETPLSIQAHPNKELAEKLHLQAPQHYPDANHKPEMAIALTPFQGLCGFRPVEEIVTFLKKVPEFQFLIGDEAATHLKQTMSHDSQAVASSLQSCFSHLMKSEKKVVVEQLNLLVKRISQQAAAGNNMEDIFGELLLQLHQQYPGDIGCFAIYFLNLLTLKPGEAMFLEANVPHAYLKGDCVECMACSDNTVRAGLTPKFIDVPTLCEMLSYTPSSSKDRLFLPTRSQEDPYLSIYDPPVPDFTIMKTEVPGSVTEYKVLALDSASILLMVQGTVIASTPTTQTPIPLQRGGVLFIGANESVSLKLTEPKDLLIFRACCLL

[4] = biological target: T3, Leucine aminopeptidase (Plasmodium falciparum 3D7, UniProt Q8IL11); experiment: P. falciparum M17LAP inhibitors, primary screen, biochemical, fluorogenic H-Leu-NHMec substrate, 1536-well (AID 1619); type: functional
T3 sequence (Q8IL11 whole entry): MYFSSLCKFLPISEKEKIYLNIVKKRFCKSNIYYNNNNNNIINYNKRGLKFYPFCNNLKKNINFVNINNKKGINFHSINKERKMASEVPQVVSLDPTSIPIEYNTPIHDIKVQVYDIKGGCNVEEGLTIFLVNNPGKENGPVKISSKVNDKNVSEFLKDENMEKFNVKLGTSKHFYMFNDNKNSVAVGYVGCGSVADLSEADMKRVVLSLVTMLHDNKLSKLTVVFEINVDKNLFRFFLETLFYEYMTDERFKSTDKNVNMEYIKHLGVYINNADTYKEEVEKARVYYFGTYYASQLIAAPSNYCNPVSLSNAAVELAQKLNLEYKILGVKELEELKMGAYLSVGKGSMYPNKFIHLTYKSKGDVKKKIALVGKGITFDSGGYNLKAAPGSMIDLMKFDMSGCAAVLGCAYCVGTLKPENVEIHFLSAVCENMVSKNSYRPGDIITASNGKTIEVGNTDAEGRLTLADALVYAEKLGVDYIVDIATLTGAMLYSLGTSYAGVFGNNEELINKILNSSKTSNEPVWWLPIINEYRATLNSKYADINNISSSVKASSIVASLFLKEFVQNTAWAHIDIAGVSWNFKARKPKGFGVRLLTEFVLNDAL

[5] = HIV-1 Vif–A3G interaction blockers – biochemical, TR-FRET, GST-Vif 1-94, biotin-A3G peptide, dose response retest, primary screen (AID 1117319); type: functional;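 further: TR-FRET signal of purified GST-Vif binding a biotinylated A3G peptide; inhibitors lower the FRET signal by blocking Vif and A3G binding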
[6] = biological target: T4, Rac GTPase-activating protein 1 (Homo sapiens, UniProt Q9H0H5); experiment: blockers of MgcRacGAP-driven Rac1 GTP hydrolysis – biochemical, ADP Hunter fluorescence, primary and confirmatory, confirmation (AID 624330); type: functional
T4 sequence (Q9H0H5 whole entry): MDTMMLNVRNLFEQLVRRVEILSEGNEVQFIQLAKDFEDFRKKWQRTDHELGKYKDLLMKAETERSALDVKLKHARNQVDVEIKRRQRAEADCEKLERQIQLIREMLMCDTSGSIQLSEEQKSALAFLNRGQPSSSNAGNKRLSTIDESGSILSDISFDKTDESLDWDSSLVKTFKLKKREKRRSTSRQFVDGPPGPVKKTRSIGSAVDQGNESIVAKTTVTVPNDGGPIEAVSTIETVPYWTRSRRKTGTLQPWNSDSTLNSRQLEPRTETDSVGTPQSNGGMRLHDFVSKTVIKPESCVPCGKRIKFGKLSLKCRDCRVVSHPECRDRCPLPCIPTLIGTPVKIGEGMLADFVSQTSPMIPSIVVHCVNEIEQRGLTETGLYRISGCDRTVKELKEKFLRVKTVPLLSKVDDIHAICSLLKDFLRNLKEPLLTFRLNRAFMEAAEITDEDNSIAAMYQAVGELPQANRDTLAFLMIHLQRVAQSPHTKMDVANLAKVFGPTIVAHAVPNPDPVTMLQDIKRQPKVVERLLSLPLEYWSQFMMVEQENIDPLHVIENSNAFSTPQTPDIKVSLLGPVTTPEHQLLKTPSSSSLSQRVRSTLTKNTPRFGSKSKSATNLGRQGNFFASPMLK

[7] = viability of PTEN-deleted HCT116 cells – cell-based, HCT116 PTEN knockout, dose response (AID 1047); type: functional;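 further: HCT116 colon tumor cells with PTEN knocked out; cells exposed to compound for 60 hours before readout; potency for loss of cell viability measured by luminescence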
[8] = viability of HCT116 lacking mutant beta-catenin – cell-based, human colon tumor, dose response (AID 1045); type: functional;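 further: HCT116 colon tumor cells with beta catenin knocked out; cells exposed to compound for 60 hours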
[9] = cells; type: functional
[10] = Vero E6 cell cytotoxicity, dose response, cytotoxicity control for non-replicating M. tuberculosis project, secondary assay (AID 492998); type: functional, VeroE6; settings: Vero C1008
[11] = THP-1 cell cytotoxicity, dose response, cytotoxicity control for non-replicating M. tuberculosis project (AID 489025); type: functional
[12] = biological target: Peroxisome proliferator-activated receptor gamma/Nuclear receptor coactivator 2 (Homo sapiens, UniProt P37231); experiment: (§1) TR-FRET dose response biochemical High Throughput Screening assay for agonists of the steroid receptor coactivator 2 (SRC-2) recruitment by the peroxisome proliferator-activated receptor gamma (PPAR gamma): non-selective agonists. [Related pubchem assays: 1297, 1032 ]; type: functional
[13] = biological target: Peroxisome proliferator-activated receptor gamma/Nuclear receptor coactivator 1 (Homo sapiens, UniProt P37231); experiment: as §1, with “1 (SRC-1)” for “2 (SRC-2)”, “assays (depositor defined):AID1300, AID1808, AID504735, AID631]” for “assays: 1297, 1032 ]”; type: protein assay
[14] = biological target: Peroxisome proliferator-activated receptor gamma/Nuclear receptor coactivator 3 (Homo sapiens, UniProt P37231); experiment: as §1, with “3 (SRC-3)” for “2 (SRC-2)”, “1301 (Confirmation screen.), 1048 (Primary screen.)]” for “1297, 1032 ]”; type: functional
[15] = growth inhibition of yeast DHODH-expressing 3D7 parasites – SYBR Green, dry powder samples, dose response (AID 1159570); type: functional, cell-based;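 further: parasite growth measured after 72 hours of compound exposure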
[16] = Dd2 malaria parasite growth inhibition potency – SYBR Green, dry powder samples, dose response (AID 1159566); type: functional, cell-based;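 further: potency for growth inhibition with lower SYBR green DNA signal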
[17] = P. falciparum Dd2 growth inhibitors, dose response, SYBR Green, cherry-picked samples (AID 1159567); type: functional, cell-based
[18] = growth inhibition of PfATP4-mutant resistant parasites – NITD609-resistant line, SYBR Green, dry powder, dose response (AID 1159571); type: functional, cell-based;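 further: parasites synchronized at ring stage by sorbitol before testing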
[19] = microbe, parasite or virus in culture; type: functional; settings: Mycobacterium tuberculosis

Chain of Peroxisome proliferator-activated receptor gamma/Nuclear receptor coactivator 3 (P37231 whole entry): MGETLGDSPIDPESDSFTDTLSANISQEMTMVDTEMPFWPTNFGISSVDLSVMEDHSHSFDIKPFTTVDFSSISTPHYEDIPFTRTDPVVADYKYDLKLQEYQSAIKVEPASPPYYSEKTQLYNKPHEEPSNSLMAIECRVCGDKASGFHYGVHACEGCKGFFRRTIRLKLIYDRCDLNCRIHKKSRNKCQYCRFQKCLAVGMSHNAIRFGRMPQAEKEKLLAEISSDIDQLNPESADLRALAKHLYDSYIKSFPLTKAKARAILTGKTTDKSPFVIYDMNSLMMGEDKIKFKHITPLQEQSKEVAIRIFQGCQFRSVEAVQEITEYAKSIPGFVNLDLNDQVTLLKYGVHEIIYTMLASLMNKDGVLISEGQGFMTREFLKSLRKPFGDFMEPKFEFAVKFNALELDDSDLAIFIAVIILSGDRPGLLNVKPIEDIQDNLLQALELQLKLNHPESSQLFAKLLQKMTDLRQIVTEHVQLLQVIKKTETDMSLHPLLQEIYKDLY
Chain of Peroxisome proliferator-activated receptor gamma/Nuclear receptor coactivator 3 (Q9Y6Q9 whole entry, further chain): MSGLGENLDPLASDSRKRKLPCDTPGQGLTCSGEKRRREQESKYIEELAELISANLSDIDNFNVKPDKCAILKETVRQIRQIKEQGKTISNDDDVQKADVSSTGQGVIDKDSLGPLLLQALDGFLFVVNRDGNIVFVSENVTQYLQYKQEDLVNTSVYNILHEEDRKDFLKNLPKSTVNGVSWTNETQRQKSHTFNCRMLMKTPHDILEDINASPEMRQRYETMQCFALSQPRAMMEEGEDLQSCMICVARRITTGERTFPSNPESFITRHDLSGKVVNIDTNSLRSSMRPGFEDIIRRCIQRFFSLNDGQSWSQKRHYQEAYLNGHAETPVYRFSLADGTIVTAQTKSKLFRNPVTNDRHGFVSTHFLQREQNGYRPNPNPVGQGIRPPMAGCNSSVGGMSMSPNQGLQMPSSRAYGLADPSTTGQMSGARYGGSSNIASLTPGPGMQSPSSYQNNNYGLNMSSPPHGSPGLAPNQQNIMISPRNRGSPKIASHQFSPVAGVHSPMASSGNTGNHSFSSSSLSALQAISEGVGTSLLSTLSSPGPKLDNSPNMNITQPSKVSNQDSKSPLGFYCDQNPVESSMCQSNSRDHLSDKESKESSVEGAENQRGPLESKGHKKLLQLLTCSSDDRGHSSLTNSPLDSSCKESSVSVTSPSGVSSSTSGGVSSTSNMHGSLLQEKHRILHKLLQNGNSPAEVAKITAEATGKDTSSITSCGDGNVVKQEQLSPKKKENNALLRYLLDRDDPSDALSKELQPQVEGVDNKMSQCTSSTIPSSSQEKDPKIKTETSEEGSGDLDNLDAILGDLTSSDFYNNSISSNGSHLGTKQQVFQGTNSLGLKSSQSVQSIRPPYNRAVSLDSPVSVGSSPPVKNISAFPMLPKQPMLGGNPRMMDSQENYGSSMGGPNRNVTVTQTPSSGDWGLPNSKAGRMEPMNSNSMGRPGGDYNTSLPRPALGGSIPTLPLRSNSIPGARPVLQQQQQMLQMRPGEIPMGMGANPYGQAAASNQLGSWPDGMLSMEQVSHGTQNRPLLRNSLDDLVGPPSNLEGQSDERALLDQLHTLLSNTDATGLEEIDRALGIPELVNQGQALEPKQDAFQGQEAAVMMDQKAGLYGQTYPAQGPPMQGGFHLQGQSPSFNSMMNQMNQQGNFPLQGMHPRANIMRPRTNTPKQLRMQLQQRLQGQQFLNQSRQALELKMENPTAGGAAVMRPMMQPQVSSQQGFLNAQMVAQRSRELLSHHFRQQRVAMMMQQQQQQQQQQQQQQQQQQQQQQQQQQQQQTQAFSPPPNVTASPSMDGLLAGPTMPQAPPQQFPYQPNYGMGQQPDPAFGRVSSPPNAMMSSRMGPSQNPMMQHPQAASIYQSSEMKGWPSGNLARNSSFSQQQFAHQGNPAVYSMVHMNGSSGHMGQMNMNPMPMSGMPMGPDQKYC
Chain of Peroxisome proliferator-activated receptor gamma/Nuclear receptor coactivator 2 (P37231 whole entry): as the sequence (P37231 whole entry) above
Chain of Peroxisome proliferator-activated receptor gamma/Nuclear receptor coactivator 2 (Q15596 whole entry, further chain): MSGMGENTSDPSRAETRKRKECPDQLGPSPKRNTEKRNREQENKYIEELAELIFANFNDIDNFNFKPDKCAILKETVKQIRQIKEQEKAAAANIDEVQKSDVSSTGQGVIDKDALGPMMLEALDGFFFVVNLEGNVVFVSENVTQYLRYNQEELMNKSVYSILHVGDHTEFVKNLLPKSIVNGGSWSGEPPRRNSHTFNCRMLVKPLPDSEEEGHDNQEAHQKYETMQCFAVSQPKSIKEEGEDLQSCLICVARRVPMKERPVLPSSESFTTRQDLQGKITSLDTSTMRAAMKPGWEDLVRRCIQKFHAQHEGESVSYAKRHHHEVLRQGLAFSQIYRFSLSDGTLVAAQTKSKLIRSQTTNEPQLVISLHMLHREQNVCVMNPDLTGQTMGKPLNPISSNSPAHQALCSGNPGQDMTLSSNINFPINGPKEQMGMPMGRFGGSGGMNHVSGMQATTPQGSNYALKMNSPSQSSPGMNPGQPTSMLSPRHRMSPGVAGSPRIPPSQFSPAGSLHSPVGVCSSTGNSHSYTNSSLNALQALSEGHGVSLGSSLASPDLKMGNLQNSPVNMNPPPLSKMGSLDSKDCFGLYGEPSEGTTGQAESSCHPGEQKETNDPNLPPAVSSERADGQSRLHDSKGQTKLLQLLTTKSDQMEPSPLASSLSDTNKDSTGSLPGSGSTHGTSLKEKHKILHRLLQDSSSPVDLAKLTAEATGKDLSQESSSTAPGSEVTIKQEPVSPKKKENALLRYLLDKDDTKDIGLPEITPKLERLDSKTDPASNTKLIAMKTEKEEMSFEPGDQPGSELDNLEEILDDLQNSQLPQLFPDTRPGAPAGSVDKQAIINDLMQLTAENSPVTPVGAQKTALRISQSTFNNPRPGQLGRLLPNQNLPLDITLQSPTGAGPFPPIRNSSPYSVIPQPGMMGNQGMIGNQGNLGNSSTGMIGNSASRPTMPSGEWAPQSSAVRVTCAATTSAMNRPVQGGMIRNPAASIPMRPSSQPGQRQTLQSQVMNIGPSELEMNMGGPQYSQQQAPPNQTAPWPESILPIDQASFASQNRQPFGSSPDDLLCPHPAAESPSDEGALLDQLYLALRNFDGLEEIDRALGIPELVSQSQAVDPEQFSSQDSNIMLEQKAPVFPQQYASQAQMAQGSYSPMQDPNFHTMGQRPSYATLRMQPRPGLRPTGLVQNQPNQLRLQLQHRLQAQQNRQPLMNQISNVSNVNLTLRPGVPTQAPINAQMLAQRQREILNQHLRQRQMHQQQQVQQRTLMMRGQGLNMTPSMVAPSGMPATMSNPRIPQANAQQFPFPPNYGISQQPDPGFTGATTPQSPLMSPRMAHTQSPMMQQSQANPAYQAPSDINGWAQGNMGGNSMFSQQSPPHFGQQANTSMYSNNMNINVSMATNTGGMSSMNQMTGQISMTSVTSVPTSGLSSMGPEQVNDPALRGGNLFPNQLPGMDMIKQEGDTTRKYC

SMILES: COc1ccccc1NC(=O)N1CCCC(C(=O)Nc2cccc(C)c2C)C1 (stereo unspecified)
- IC50 [1]: > 67.6 µM (inactive)
- IC50 [2]: > 67.6 µM (inactive)

SMILES: COc1ccc([N+](=O)[O-])cc1NC(=S)NC(C)=O
- IC50 [1]: > 67.6 µM (inactive)
- IC50 [2]: > 67.6 µM (inactive)

SMILES: Cc1cc(=O)c2c(O)c(O)ccc2o1
- IC50 [3]: > 50 µM (not active)
- IC50 [4]: 110 µM (active)
- IC50 [5]: > 100 µM (active)
- IC50 [6]: 32.2 µM (active)

SMILES: Cc1cc(NC(=O)C2CCCCC2)n(-c2nc3ccccc3[nH]2)n1
- EC50 [7]: 16.9 µM (active)
- EC50 [8]: 13.6 µM (active)
- IC50 [9]: 5.56 µM (active)
- CC50 [10]: > 20 µM (active)
- CC50 [11]: > 40 µM (active)

SMILES: COc1ccc(NC(=O)CSc2nnc(C)n2Cc2ccccc2)cc1
- IC50 [5]: > 12.5 µM (active)

SMILES: CC(Sc1nc(N2CCCCC2)c2c(c1C#N)CCCC2)C(=O)O (stereo unspecified)
- EC50 [12]: 64.9 µM (not active)
- EC50 [13]: 33.9 µM (inactive)
- EC50 [14]: > 79.4 µM (not active)

SMILES: O=C(Nc1ccccc1)N1CCCCN2[C@@H](CO)[C@H](c3ccc(C#Cc4cccnc4)cc3)[C@@H]2C1
- AC50 [15]: 0.476 µM (active)
- AC50 [16]: 0.552 µM (active)
- AC50 [17]: 0.633 µM (active)
- AC50 [18]: 0.573 µM (active)

SMILES: O=C(CCN1C(=O)/C(=C/c2ccccc2Cl)SC1=S)N1CCCC1
- CC50 [19]: 8.2 µM (active)
- IC50 [9]: 28.4 µM (active)
- CC50 [10]: 11.4 µM (active)
- CC50 [11]: 19.7 µM (active)

SMILES: Cc1ccc(C(=O)OCc2cn3ccccc3n2)cc1
- IC50 [5]: > 100 µM (active)
